Values quoted from earlier work in US12661328B2, “Methods of treating anti-NMDAR-associated neuropsychiatric disorders” (Vanderbilt University, priority 2018, dated 2026).

Columns and labels:
[1] = test system: γ-aminobutyric acid (GABA), benzodiazepine, dopamine, adrenergic, histamine, or glycine receptors
[2] = test system: voltage-dependent calcium, sodium, or potassium channels
[3] = test system: extrasynaptic NMDA receptors; details: Xia et al., 2010

CC12CC3CC(C)(C1)CC(N)(C3)C2 [Memantine, 1-amino-3,5-dimethyladamantane]
affinity for NMDA receptors (NMDA receptors): low to moderate-affinity | affinity for GABA, benzodiazepine, dopamine, adrenergic, histamine, or glycine receptors [1]: no affinity | affinity for voltage-dependent calcium, sodium, or potassium channels [2]: no affinity | concentration range of relatively specific inhibition of extrasynaptic NMDA receptors [3]: low micromolar range
